In PubChem BioAssay AID248 (DTP/NCI, 2004):
Where “and” joins values, the source holds several entries; their conditions need not be identical. Equal entries are not always repeated. Inconclusive results and toxic doses are left out. No stated cut-off is given here; in the data, active means T/C of 150% or more; inactive means T/C below 125%.

Test system: L1210 leukemia ip in BDF1 mice, survival T/C
Assay: NCI In Vivo Anticancer Drug Screen. Data for tumor model L1210 Leukemia (intraperitoneal) in B6D2F1 (BDF1) mice
Conditions: endpoint: mean survival time, higher = longer survival
Summary of the method: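 Mice bearing the transplanted tumor received compound or vehicle. Survival of the treated group was divided by that of the vehicle-treated control group to give the ratio.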

[1] = dose: 100.0 mg/kg/injection, schedule: Q04DX003 (ip), vehicle: Klucel (hydroxypropylcellulose) (HPC)
[2] = dose: 100.0 mg/kg/injection, schedule: Q04DX003 (ip), vehicle: saline with Tween-80
[3] = dose: 400.0 mg/kg/injection, schedule: Q04DX002 (ip), vehicle: saline with Tween-80
[4] = dose: 100.0 mg/kg/injection, schedule: Q04DX002 (ip), vehicle: saline with Tween-80
[5] = dose: 200.0 mg/kg/injection, schedule: Q04DX002 (ip), vehicle: saline with Tween-80
[6] = dose: 100.0 mg/kg/injection, schedule: Q04DX002 (ip), vehicle: Klucel (hydroxypropylcellulose) (HPC)
[7] = dose: 200.0 mg/kg/injection, schedule: Q04DX002 (ip), vehicle: Klucel (hydroxypropylcellulose) (HPC)
[8] = dose: 400.0 mg/kg/injection, schedule: Q04DX002 (ip), vehicle: Klucel (hydroxypropylcellulose) (HPC)
[9] = dose: 200.0 mg/kg/injection, schedule: Q04DX003 (ip), vehicle: saline with Tween-80
[10] = dose: 100.0 mg/kg/injection, schedule: Q01DX001 (ip), vehicle: Klucel (hydroxypropylcellulose) (HPC)
[11] = dose: 100.0 mg/kg/injection, schedule: Q01DX009 (ip), vehicle: Klucel (hydroxypropylcellulose) (HPC)
[12] = dose: 200.0 mg/kg/injection, schedule: Q01DX001 (ip), vehicle: Klucel (hydroxypropylcellulose) (HPC)
[13] = dose: 200.0 mg/kg/injection, schedule: Q01DX009 (ip), vehicle: Klucel (hydroxypropylcellulose) (HPC)
[14] = dose: 400.0 mg/kg/injection, schedule: Q01DX001 (ip), vehicle: Klucel (hydroxypropylcellulose) (HPC)
[15] = dose: 400.0 mg/kg/injection, schedule: Q01DX009 (ip), vehicle: Klucel (hydroxypropylcellulose) (HPC)
[16] = dose: 200.0 mg/kg/injection, schedule: Q04DX003 (ip), vehicle: Klucel (hydroxypropylcellulose) (HPC)
[17] = dose: 400.0 mg/kg/injection, schedule: Q04DX003 (ip), vehicle: Klucel (hydroxypropylcellulose) (HPC)
[18] = dose: 50.0 mg/kg/injection, schedule: Q01DX001 (ip), vehicle: Klucel (hydroxypropylcellulose) (HPC)
[19] = dose: 50.0 mg/kg/injection, schedule: Q04DX002 (ip), vehicle: Klucel (hydroxypropylcellulose) (HPC)
[20] = dose: 100.0 mg/kg/injection, schedule: Q01DX009 (ip), vehicle: saline with Tween-80
[21] = dose: 200.0 mg/kg/injection, schedule: Q01DX009 (ip), vehicle: saline with Tween-80

Measured: T/C

CCCCCCCCCCCCc1ccc2c(c1)CCc1ccccc1-2
inactive: dose: 100.0 mg/kg/injection, schedule: Q01DX001 (ip), vehicle: carboxymethylcellulose (CMC) 97 % of control | dose: 200.0 mg/kg/injection, schedule: Q01DX001 (ip), vehicle: carboxymethylcellulose (CMC) 92 % of control | dose: 400.0 mg/kg/injection, schedule: Q01DX001 (ip), vehicle: carboxymethylcellulose (CMC) 90 % of control

O=C(O)c1ccc(N=Cc2ccc([N+](=O)[O-])s2)cc1
inactive: dose: 25.0 mg/kg/injection, schedule: Q04DX003 (ip), vehicle: saline with Tween-80 94 % of control | dose: 50.0 mg/kg/injection, schedule: Q04DX003 (ip), vehicle: saline with Tween-80 100 % of control | [1] 103 % of control | [2] 102 % of control

NNc1c(F)c(F)c(Br)c(F)c1F
inactive: dose: 25.6 mg/kg/injection, schedule: Q04DX002 (ip), vehicle: saline with Tween-80 106 % of control | dose: 64.0 mg/kg/injection, schedule: Q04DX002 (ip), vehicle: saline with Tween-80 95 % of control | dose: 160.0 mg/kg/injection, schedule: Q04DX002 (ip), vehicle: saline with Tween-80 106 % of control | [3] 95 % of control

COc1ccc(C(=O)/C=C/c2ccc(N(C)C)cc2)cc1
inactive: dose: 37.5 mg/kg/injection, schedule: Q04DX003 (ip), vehicle: saline 95 % of control | dose: 75.0 mg/kg/injection, schedule: Q04DX003 (ip), vehicle: saline 90 % of control | dose: 150.0 mg/kg/injection, schedule: Q04DX003 (ip), vehicle: saline 89 % of control

C/C=C\c1ccc(OC(=O)Nc2ccc(Cl)cc2)c(OC)c1
inactive: [4] 100 % of control | [5] 100 % of control | [3] 96 % of control

S=C(Nc1ccccc1)Nc1ccccc1Cl
inactive: [6] 100 % of control | [7] 100 % of control | [8] 95 % of control

CCCCOCN1COCC1(C)C
inactive: [2] 108 % of control | [9] 106 % of control

Cc1cc(C)c([N+](=O)[O-])c(N)n1
inactive: [10] 102 % of control | [11] 102 % of control | [12] 105 % of control | [13] 101 % of control | [14] 100 % of control | [15] 103 % of control

COC1OC2COC(c3ccccc3)OC2C(OC(C)=O)C1OC(C)=O (centres undefined)
inactive: [6] 95 % of control | [7] 117 % of control | [8] 120 % of control

COC(=O)c1cc(=O)c2c(=O)[nH]c(=O)n(C)c2[nH]1
inactive: [1] 94 % of control | [16] 101 % of control | [17] 95 % of control

O=Nc1c2cc3ccccc3[nH]c-2c2ccccc12
inactive: [18] 95 % of control | [10] 93 % of control | [12] 93 % of control

COc1ccc(Cc2c3cc(OC)c(OC)cc3cc[n+]2[O-])cc1OC
inactive: dose: 100.0 mg/kg/injection, schedule: Q01DX001 (ip), vehicle: saline 91 % of control | dose: 200.0 mg/kg/injection, schedule: Q01DX001 (ip), vehicle: saline 96 % of control | dose: 400.0 mg/kg/injection, schedule: Q01DX001 (ip), vehicle: saline 96 % of control

CNC(=O)Oc1cccc(N)c1
inactive: dose: 75.0 mg/kg/injection, schedule: Q01DX001 (ip), vehicle: saline 109 % of control | dose: 150.0 mg/kg/injection, schedule: Q01DX001 (ip), vehicle: saline 114 % of control

CC(=O)OC1C(C=O)OC(C)(C)OC1C1COC(=O)O1 (centres undefined)
inactive: dose: 25.0 mg/kg/injection, schedule: Q04DX002 (ip), vehicle: Klucel (hydroxypropylcellulose) (HPC) 104 % of control | [19] 93 % of control | [6] 100 % of control

O=C(O)C(O)C(O)C(O)C(O)C(=O)O (centres undefined)
inactive: dose: 50.0 mg/kg/injection, schedule: Q01DX009 (ip), vehicle: saline 92 % of control | dose: 100.0 mg/kg/injection, schedule: Q01DX009 (ip), vehicle: saline 94 % of control | [1] 95 % of control | dose: 200.0 mg/kg/injection, schedule: Q01DX009 (ip), vehicle: saline 89 % of control | [16] 91 % of control | dose: 400.0 mg/kg/injection, schedule: Q01DX009 (ip), vehicle: saline 92 % of control | [17] 91 % of control | dose: 600.0 mg/kg/injection, schedule: Q01DX001 (ip), vehicle: saline 90 % of control | dose: 600.0 mg/kg/injection, schedule: Q01DX009 (ip), vehicle: saline 100 % of control | dose: 800.0 mg/kg/injection, schedule: Q01DX001 (ip), vehicle: saline 93 % of control and 90 % of control | dose: 800.0 mg/kg/injection, schedule: Q01DX009 (ip), vehicle: saline 97 % of control | dose: 1000.0 mg/kg/injection, schedule: Q01DX001 (ip), vehicle: saline 95 % of control and 88 % of control | dose: 1000.0 mg/kg/injection, schedule: Q01DX009 (ip), vehicle: saline 100 % of control

COc1ccc(-n2c(=O)c(N=Nc3ccc(Cl)cc3)c(O)n(-c3ccccc3Cl)c2=S)cc1
inactive: [18] 106 % of control | [10] 97 % of control | [12] 95 % of control

N#CC(C#N)=CN1CCOCC1
inactive: [4] 87 % of control | [5] 87 % of control

CCCCCCCCCCCCCCS
inactive: dose: 200.0 mg/kg/injection, schedule: Q01DX Z (ip), vehicle: methylcellulose (MC) 116 % of control | dose: 225.0 mg/kg/injection, schedule: Q01DX Z (ip), vehicle: methylcellulose (MC) 108 % of control | dose: 450.0 mg/kg/injection, schedule: Q01DX Z (ip), vehicle: methylcellulose (MC) 104 % of control | dose: 675.0 mg/kg/injection, schedule: Q01DX Z (ip), vehicle: methylcellulose (MC) 103 % of control

CCOc1ccc(/C=C2\N=C(c3ccccc3)OC2=O)cc1OC
inactive: [11] 109 % of control | [13] 105 % of control | [15] 102 % of control

CC(=O)Nc1ccc(NC(=O)c2cccc3ccccc23)cc1
inactive: dose: 50.0 mg/kg/injection, schedule: Q01DX009 (ip), vehicle: Klucel (hydroxypropylcellulose) (HPC) 90 % of control | [11] 98 % of control and 86 % of control and 90 % of control | [13] 86 % of control | [15] 87 % of control and 89 % of control

O=C(COCC(=O)N/N=C/c1ccccc1O)N/N=C/c1ccccc1O
inactive: [10] 93 % of control | [11] 98 % of control and 103 % of control | [6] 109 % of control | [1] 110 % of control | [12] 92 % of control | [13] 94 % of control and 98 % of control | [7] 91 % of control | [16] 108 % of control | [14] 91 % of control | [15] 95 % of control and 87 % of control | [8] 100 % of control | [17] 105 % of control

CCCCCCCCCCCCCCOc1ccc(C=O)cc1OC
inactive: [1] 96 % of control | [16] 93 % of control | [17] 91 % of control

CC(=O)Oc1ccc(CCN(Cc2ccc3c(c2)OCO3)C(C)=O)cc1
inactive: [19] 97 % of control | [6] 91 % of control | [7] 97 % of control

C(=C(/c1ccccc1)N1CCOCC1)/c1ccccc1
inactive: dose: 100.0 mg/kg/injection, schedule: Q04DX002 (sc), vehicle: olive oil, sesame oil, peanut oil 118 % of control | dose: 200.0 mg/kg/injection, schedule: Q04DX002 (sc), vehicle: olive oil, sesame oil, peanut oil 99 % of control | dose: 400.0 mg/kg/injection, schedule: Q04DX002 (sc), vehicle: olive oil, sesame oil, peanut oil 99 % of control

CSc1ccc(SCCOC(=O)Nc2ccc(Cl)cc2Cl)cc1
inactive: dose: 50.0 mg/kg/injection, schedule: Q01DX009 (ip), vehicle: saline with Tween-80 91 % of control | [20] 93 % of control | [21] 98 % of control

Cn1nc(NC(=O)C(F)(F)F)c2ncc(-c3ccc(Cl)cc3)nc21
inactive: [20] 102 % of control | [2] 100 % of control | [21] 97 % of control | [9] 87 % of control | dose: 400.0 mg/kg/injection, schedule: Q01DX009 (ip), vehicle: saline with Tween-80 97 % of control | dose: 400.0 mg/kg/injection, schedule: Q04DX003 (ip), vehicle: saline with Tween-80 96 % of control
